{
  "source": "PubChem BioAssay AID1963858",
  "about": "(Molecular Pharmacology Branch, DTP, NCI, 2024)",
  "system": "HOP-62 multicell spheroids with HUVEC/MSC, viability",
  "assay": "Anticancer human tumor HOP-62 cell line growth inhibition [KRAS2];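 further: viability read after a week of compound exposure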;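 on viability, T/C: 100% = DMSO vehicle-treated spheroids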",
  "conditions": "for viability, T/C: stronger effect = lower value",
  "excerpt": "Multicellular complex tumor spheroid response to RAS pathway inhibitors in combination with a targeted agents in patient-derived cell lines with oncogenic KRAS variants from multiple cancer types\nA high-throughput screen of multi-cell type tumor spheroids was designed to identify active combinations of targeted small molecules and KRAS pathway inhibitors. Complex spheroids include a stromal component modeled by human endothelial cells (HUVEC) and fibroblasts modeled by human mesenchymal stem cells (MSCs). The concentration ranges selected for each drug and investigational agent were based upon clinically achievable concentrations if the clinical Cmax of the agent was known.\nCompounds. The drugs and investigational agents: BI-3406 (NSC825286), BAY-293 (NSC824723), batoprotafib (TNO155; NSC825523), sotorasib (AMG 510; NSC818433), MRTX1257 (NSC819558), elimusertib (BAY 1895344; NSC800525), molibresib (GSK525762; NSC774829), temuterkib (LY3214996; NSC803410), venetoclax (NSC766270), alisertib (NSC759677), olaparib (NSC753686), talazoparib (NSC767125), erdafitinib (NSC781556), ipatasertib (NSC767898), cabozantinib (NSC761068), nintedanib (NSC756659), abemaciclib (NSC768073), docetaxel (NSC628503), trametinib (NSC758246), and sapanisertib (NSC764658) were obtained from the National Cancer Institute (NCI) Developmental Therapeutics Program Chemical Repository. The FDA-approved anticancer drug set is available from the Developmental Therapeutics Program. […] The stock solutions were prepared in dimethyl sulfoxide (DMSO, Sigma-Aldrich, St. Louis, MO, cat. D2650) at 800-fold the tested concentration and stored at -70 degrees C prior to their use. All drugs and investigational agents were tested over a range starting from a high concentration at or near the clinical Cmax and decreasing in half-log increments. If the clinical Cmax for an agent had not been determined, the highest concentration tested was 10 microM.\nCell Culture. All cells were maintained in an incubator at 37 degrees C and 5% CO2 with 95% humidity. The PDC lines were cultured according to standard operating procedures established by the NCI PDMR (https://pdmr.cancer.gov/sops/default.htm). Briefly, all PDCs were thawed and cultured in Matrigel-coated flasks prepared with a working solution of 1X Ham's F-12 nutrient mix, without supplementation (Invitrogen, Waltham, MA, cat. 11765054), 100 U/mL penicillin-streptomycin (Invitrogen, cat. 15140122), and 2.5% Matrigel (Corning Inc., Corning, NY, cat. 354248) for the first three passages. All PDCs were cultured in complete DMEM/F-12 media containing advanced DMEM/F-12 (Invitrogen, cat. 12634028), 4.9% defined fetal bovine serum, heat inactivated (HyClone Laboratories Inc., Logan, UT, cat. SH30070.03HI), 389 ng/mL hydrocortisone (Sigma-Aldrich, cat. H4001), 9.7 ng/mL human EGF recombinant protein (Invitrogen, cat. PHG0313), 23.4 microg/mL adenine (Sigma-Aldrich, cat. A2786), 97.3 U/mL penicillin-streptomycin (Invitrogen, cat. 15140122), 1.9 mM L-glutamine (Invitrogen, cat. 25030081), and 9.7 microM Y-27632 dihydrochloride (Tocris Bioscience, Bristol, United Kingdom, cat. 1254). The PDCs were cultured in complete DMEM/F12 media without 9.7 microM Y-27632 dihydrochloride for at least two passages prior to the screen. The established cell line HOP-62 was cultured in RPMI 1640 medium, HEPES (Invitrogen, cat. 22400105) with 10% defined fetal bovine serum (HyClone Laboratories Inc., cat. SH30070.03) and 2 mM L-glutamine (Invitrogen, cat. 25030081). The pooled donor HUVEC were cultured in endothelial cell growth medium 2 (PromoCell, Heidelberg, Germany, cat. C-22011) and the hMSC were cultured in mesenchymal stem cell growth medium 2 (PromoCell, cat. C-28009). For all experiments, HUVEC and hMSC were used at passages </=5, while the malignant cell lines were used at passages </=15. […]",
  "note": "Where “and” joins values, the source holds several entries; their conditions need not be identical. Equal entries are not always repeated.",
  "data": [
    {"smiles": "CCNC(=O)CC1N=C(c2ccc(Cl)cc2)c2cc(OC)ccc2-n2c(C)nnc21", "note": "(stereo unspecified)", "values": [
      {"measurement": "viability, T/C", "setting": "compound 0.0316 µM", "value": "105% [middle of 5 runs]"},
      {"measurement": "viability, T/C", "setting": "compound 0.1 µM", "value": "90% [middle of 5 runs]"},
      {"measurement": "viability, T/C", "setting": "compound 0.316 µM", "value": "62.1% [middle of 5 runs]"},
      {"measurement": "viability, T/C", "setting": "compound 1 µM", "value": "48.2% [middle of 5 runs]"},
      {"measurement": "viability, T/C", "setting": "compound 3.16 µM", "value": "44.7% [middle of 5 runs]"},
      {"measurement": "IC50", "setting": "curve of compound", "value": "880 nM [middle of 5 runs]"}
    ]},
    {"smiles": "CN(C)C/C=C/C(=O)Nc1cc2c(Nc3ccc(F)c(Cl)c3)ncnc2cc1O[C@H]1CCOC1", "values": [
      {"measurement": "viability, T/C", "setting": "compound 0.000316 µM", "value": "105% and 110% and 102% (2×)"},
      {"measurement": "viability, T/C", "setting": "compound 0.001 µM", "value": "114% (2×) and 107% and 102% (2×)"},
      {"measurement": "viability, T/C", "setting": "compound 0.00316 µM", "value": "104% [middle of 5 runs]"},
      {"measurement": "viability, T/C", "setting": "compound 0.01 µM", "value": "104% [middle of 5 runs]"},
      {"measurement": "viability, T/C", "setting": "compound 0.0316 µM", "value": "105% [middle of 5 runs]"},
      {"measurement": "viability, T/C", "setting": "compound 0.1 µM", "value": "102% [middle of 5 runs]"},
      {"measurement": "IC50", "setting": "curve of compound", "value": "> 0.1", "unit": "µM"}
    ]},
    {"smiles": "CNCc1ccccc1-c1csc(C(C)Nc2nc(C)nc3cc(OC)c(OC)cc23)c1", "note": "(stereo unspecified)", "values": [
      {"measurement": "viability, T/C", "setting": "compound 0.1 µM", "value": "99.2% [middle of 17 runs]"},
      {"measurement": "viability, T/C", "setting": "compound 10 µM", "value": "0.22% [middle of 15 runs]"},
      {"measurement": "IC50", "setting": "compound alone, run of 07/19/2021", "value": "1.54 µM [middle of 5 runs]"},
      {"measurement": "IC50", "setting": "compound alone, run of 07/26/2021", "value": "1.73 µM [middle of 6 runs]"}
    ]},
    {"smiles": "COC(=O)c1ccc2c(C(=Nc3ccc(N(C)C(=O)CN4CCN(C)CC4)cc3)c3ccccc3)c(O)[nH]c2c1", "values": [
      {"measurement": "viability, T/C", "setting": "compound 0.0316 µM", "value": "89.8% [middle of 5 runs]"},
      {"measurement": "viability, T/C", "setting": "compound 0.1 µM", "value": "77.7% [middle of 5 runs]"},
      {"measurement": "viability, T/C", "setting": "compound 0.316 µM", "value": "65.8% [middle of 5 runs]"},
      {"measurement": "viability, T/C", "setting": "compound 1 µM", "value": "48.6% [middle of 5 runs]"},
      {"measurement": "viability, T/C", "setting": "compound 3.16 µM", "value": "40.7% [middle of 5 runs]"},
      {"measurement": "viability, T/C", "setting": "compound 10 µM", "value": "15.8% [middle of 5 runs]"},
      {"measurement": "IC50", "setting": "curve of compound", "value": "1.09 µM [middle of 5 runs]"}
    ]},
    {"smiles": "COc1cc(Nc2ncc3c(n2)-c2ccc(Cl)cc2C(c2c(F)cccc2OC)=NC3)ccc1C(=O)O", "values": [
      {"measurement": "viability, T/C", "setting": "compound 0.316 µM", "value": "51% [middle of 5 runs]"},
      {"measurement": "viability, T/C", "setting": "compound 1 µM", "value": "42.8% [middle of 5 runs]"},
      {"measurement": "viability, T/C", "setting": "compound 3.16 µM", "value": "33.8% [middle of 5 runs]"},
      {"measurement": "viability, T/C", "setting": "compound 10 µM", "value": "20.9% [middle of 5 runs]"}
    ]},
    {"smiles": "COc1cc2nc(C)nc(NC(C)c3cc(N)cc(C(F)(F)F)c3)c2cc1OC1CCOC1", "note": "(stereo unspecified)", "values": [
      {"measurement": "IC50", "setting": "compound alone, run of 07/12/2021", "value": "> 10 µM and 9.67 µM"}
    ]},
    {"smiles": "COc1cc2nccc(Oc3ccc(NC(=O)C4(C(=O)Nc5ccc(F)cc5)CC4)cc3)c2cc1OC", "values": [
      {"measurement": "viability, T/C", "setting": "compound 0.0316 µM", "value": "96.9% [middle of 5 runs]"},
      {"measurement": "viability, T/C", "setting": "compound 1 µM", "value": "99.2% [middle of 5 runs]"},
      {"measurement": "viability, T/C", "setting": "compound 3.16 µM", "value": "78.9% [middle of 5 runs]"}
    ]},
    {"smiles": "Cn1nccc1Nc1nccc(-c2cc3c(s2)C(C)(C)N(CCN2CCOCC2)C3=O)n1", "values": [
      {"measurement": "viability, T/C", "setting": "compound 0.0316 µM", "value": "98.2% [middle of 5 runs]"},
      {"measurement": "viability, T/C", "setting": "compound 0.1 µM", "value": "103% [middle of 5 runs]"},
      {"measurement": "viability, T/C", "setting": "compound 0.316 µM", "value": "99.5% [middle of 5 runs]"},
      {"measurement": "viability, T/C", "setting": "compound 1 µM", "value": "62.4% [middle of 5 runs]"},
      {"measurement": "viability, T/C", "setting": "compound 3.16 µM", "value": "32.8% [middle of 5 runs]"},
      {"measurement": "viability, T/C", "setting": "compound 10 µM", "value": "30.4% [middle of 5 runs]"},
      {"measurement": "IC50", "setting": "curve of compound", "value": "1.65 µM [middle of 5 runs]"}
    ]},
    {"smiles": "Cn1ncnc1[C@H]1c2n[nH]c(=O)c3cc(F)cc(c23)N[C@@H]1c1ccc(F)cc1", "values": [
      {"measurement": "viability, T/C", "setting": "compound 0.000316 µM", "value": "105% [middle of 5 runs]"},
      {"measurement": "viability, T/C", "setting": "compound 0.001 µM", "value": "102% (2×) and 95.9% and 103% (2×)"},
      {"measurement": "viability, T/C", "setting": "compound 0.00316 µM", "value": "103% [middle of 5 runs]"},
      {"measurement": "viability, T/C", "setting": "compound 0.01 µM", "value": "99.4% [middle of 5 runs]"},
      {"measurement": "viability, T/C", "setting": "compound 0.0316 µM", "value": "98% [middle of 5 runs]"},
      {"measurement": "viability, T/C", "setting": "compound 0.1 µM", "value": "85.3% [middle of 5 runs]"},
      {"measurement": "IC50", "setting": "curve of compound", "value": "> 0.1", "unit": "µM"}
    ]},
    {"smiles": "O=C(c1cc(Cc2n[nH]c(=O)c3ccccc23)ccc1F)N1CCN(C(=O)C2CC2)CC1", "values": [
      {"measurement": "viability, T/C", "setting": "compound 0.0316 µM", "value": "105% [middle of 5 runs]"},
      {"measurement": "viability, T/C", "setting": "compound 0.1 µM", "value": "102% [middle of 5 runs]"},
      {"measurement": "viability, T/C", "setting": "compound 0.316 µM", "value": "93.2% [middle of 5 runs]"},
      {"measurement": "viability, T/C", "setting": "compound 10 µM", "value": "50.4% [middle of 5 runs]"},
      {"measurement": "IC50", "setting": "curve of compound", "value": "4.88 µM and > 10 µM and 4.58 µM"}
    ]}
  ]
}
